# According to paper PMC6541551 (Journal of psychopharmacology (Oxford, England), 2018):
# Legend:
# Screening of = format: in vivo, CD-1 mice; conditions: male mice, 50 mg/kg, three timepoints; for AUC (systemic exposure to (2R,6R)-HNK): p.o.
# mice = experiment: Forced-swim test; format: in vivo, CD-1 mice; conditions: 15 mg/kg i.p., vs saline
# [1] = rats; ref Moaddel et al., 2015; cited from earlier work
SMILES,Relative BA (plasma AUClast p.o. / i.p.) (Screening of),further results
CCCCC(=O)O[C@@H]1CCC[C@@](N)(c2ccccc2Cl)C1=O [Compound 2c],26%,
"CNC1(c2ccccc2Cl)CCCCC1=O (racemic) [ketamine, (R,S)-ketamine, reference compound]",,"Forced-swim test immobility time (mice; 24-hour re-test, p<0.01): reduced immobility time; Forced-swim test immobility time (mice; one hour after administration, p<0.05): reduced immobility time"
"N[C@]1(c2ccccc2Cl)CCC[C@H](O)C1=O [(2S,6S)-HNK, (2S,6S)-hydroxynorketamine]",,oral BA [1]: approximately 46%
CCCCCCCC(=O)O[C@@H]1CCC[C@@](N)(c2ccccc2Cl)C1=O [Compound 2d],10%,"AUC (systemic exposure to (2R,6R)-HNK) (Screening of): 0.782 µg/mL/h"
N[C@@]1(c2ccccc2Cl)CCC[C@@H](OC(=O)c2ccccc2)C1=O [Compound 2e],44%,
CCC(=O)O[C@@H]1CCC[C@@](N)(c2ccccc2Cl)C1=O [Compound 2b],30%,
CC(=O)O[C@@H]1CCC[C@@](N)(c2ccccc2Cl)C1=O [Compound 2a],28%,"AUC (systemic exposure to (2R,6R)-HNK) (Screening of): 2.26 µg/mL/h"
